Consider 24 compounds from US7161032B2, “Sulfonamide derivatives, insecticides for agricultural and horticultural use, and usage thereof” (Nihon Nohyaku Co., Ltd., priority 2002, dated 2007).

Each structure is given as a SMILES string.

Common to all, as to assay type: in vivo
The test system of test [1] is Common Cutworm (Spodoptera litura). In words: Insecticidal effect on common cutworm (Test Example 2): cabbage leaf piece immersed in 50 ppm liquid chemical. Particulars: common cutworm (Spodoptera litura) second-instar larvae, 8 days after inoculation, 25° C. As to the method:
A piece of cabbage leaf (cultivar: Shikidori) was immersed for about 30 seconds in a liquid chemical prepared by diluting a preparation containing each compound listed in Table 1 or 2 as an active ingredient to adjust the concentration to 50 ppm. After air-dryness, it was placed in a plastic Petri dish with a diameter of 9 cm and inoculated with second-instar larvae of common cutworm, after which the dish was closed and then allowed to stand in a room thermostated at 25° C. Eight days after the inoculation, the dead and alive were counted. The mortality was calculated according to the following equation and the insecticidal effect was judged according to the criterion shown in Test Example 1. The test was carried out with triplicate groups of 10 insects. [formula]

In test [2] the test system is Diamond Back Moth (Plutella xylostella). Put plainly: Insecticidal effect on diamond back moth (Test Example 1): egg-bearing Chinese cabbage seedling immersed in 50 ppm liquid chemical. As to the method:
Adult diamond back moths were released and allowed to oviposit on a Chinese cabbage seedling. Two days after the release, the seedling having the eggs deposited thereon was immersed for about 30 seconds in a liquid chemical prepared by diluting a preparation containing each compound listed in Table 1 or 2 as an active ingredient to adjust the concentration to 50 ppm. After air-dryness, it was allowed to stand in a room thermostated at 25° C. Six days after the immersion, the hatched insects were counted. The mortality was calculated according to the following equation and the insecticidal effect was judged according to the criterion shown below. The test was carried out with triplicate groups of 10 insects. [formula]

Test [3] relates to Smaller Tea Tortrix (Adoxophyes sp.). Put plainly: Insecticidal effect on smaller tea tortrix (Test Example 3): tea leaves immersed in 50 ppm liquid chemical. Particulars: smaller tea tortrix (Adoxophyes sp.) larvae, 8 days after inoculation, 25° C., humidity 70%. As to the method:
Tea leaves were immersed for about 30 seconds in a liquid chemical prepared by diluting a preparation containing each compound listed in Table 1 or 2 as an active ingredient to adjust the concentration to 50 ppm. After air-dryness, the tea leaves were placed in a plastic Petri dish with a diameter of 9 cm and inoculated with larvae of smaller tea tortrix, after which the dish was allowed to stand in a room thermostated at 25° C. and having a humidity of 70%. Eight days after the inoculation, the dead and alive were counted and the insecticidal effect was judged according to the criterion shown in Test Example 1. The test was carried out with triplicate groups of 10 insects.

On to `Cc1cc(C(F)(C(F)(F)F)C(F)(F)F)ccc1NC(=O)c1cccc(I)c1C(=O)NC(C)(C)CS(=O)(=O)N1CCS(=O)(=O)CC1C` (stereo not drawn) [1-63], for which the “Insecticidal effect (mortality grade), Test Example 2” value (shortened to “Insecticidal effect … Test Example 2”) in test [1] is “A (Mortality 100%)”. In addition, in test [2], the “Insecticidal effect (mortality grade), Test Example 1” value (from here on “Insecticidal effect … Test Example 1”) was “A (Mortality 100%)”. Moreover, in test [3], the “Insecticidal effect (mortality grade), Test Example 3” value (“Insecticidal effect … Test Example 3” for short) is listed as “A (Mortality 100%)”.
As for `COC(=O)N1CCN(S(=O)(=O)CC(C)NC(=O)c2c(I)cccc2C(=O)Nc2ccc(C(F)(C(F)(F)F)C(F)(F)F)cc2C)CC1` (stereo not drawn) [1-66], the “Insecticidal effect … Test Example 2” value in test [1] is on record as “A (Mortality 100%)”. The “Insecticidal effect … Test Example 1” value in test [2] is on record as “A (Mortality 100%)”. For the same compound, the “Insecticidal effect … Test Example 3” value in test [3] is reported as “A (Mortality 100%)”.
Take `Cc1cc(C(F)(C(F)(F)F)C(F)(F)F)ccc1NC(=O)c1cccc(I)c1C(=O)NC(C)CS(=O)(=O)N1CCC(=O)CC1` (stereo not drawn) [1-67]: in test [1], the “Insecticidal effect … Test Example 2” value was “E (Mortality less than 50%)”. In addition, the “Insecticidal effect … Test Example 1” value in test [2] was “A (Mortality 100%)”. For the same compound, the “Insecticidal effect … Test Example 3” value in test [3] is recorded as “E (Mortality less than 50%)”.
With `Cc1cc(C(F)(C(F)(F)F)C(F)(F)F)ccc1NC(=O)c1cccc(I)c1C(=O)NC(C)CS(=O)(=O)NCCCl` (stereo not drawn) [1-71], the “Insecticidal effect … Test Example 2” value in test [1] is “A (Mortality 100%)”. The “Insecticidal effect … Test Example 1” value in test [2] is “A (Mortality 100%)”. Also, the “Insecticidal effect … Test Example 3” value in test [3] is on record as “A (Mortality 100%)”.
For `Cc1cc(C(F)(C(F)(F)F)C(F)(F)F)ccc1NC(=O)c1cccc(I)c1C(=O)NC(C)CS(=O)(=O)NCCO` (stereo not drawn) [1-72], the “Insecticidal effect … Test Example 2” value in test [1] was “A (Mortality 100%)”. Moreover, the “Insecticidal effect … Test Example 1” value in test [2] is listed as “A (Mortality 100%)”. Besides, the “Insecticidal effect … Test Example 3” value in test [3] is recorded as “A (Mortality 100%)”.
On to `COCCNS(=O)(=O)CC(C)NC(=O)c1c(I)cccc1C(=O)Nc1ccc(C(F)(C(F)(F)F)C(F)(F)F)cc1C` (stereo not drawn) [1-73], for which the “Insecticidal effect … Test Example 2” value in test [1] is on record as “A (Mortality 100%)”. The “Insecticidal effect … Test Example 1” value in test [2] is “A (Mortality 100%)”. For the same compound, the “Insecticidal effect … Test Example 3” value in test [3] is reported as “A (Mortality 100%)”.
For the compound `CSCCNS(=O)(=O)CC(C)NC(=O)c1c(I)cccc1C(=O)Nc1ccc(C(F)(C(F)(F)F)C(F)(F)F)cc1C` (stereo not drawn) [1-75], the “Insecticidal effect … Test Example 2” value in test [1] was “A (Mortality 100%)”. Besides, in test [2], the “Insecticidal effect … Test Example 1” value is “A (Mortality 100%)”. The “Insecticidal effect … Test Example 3” value in test [3] is “A (Mortality 100%)”.
With `Cc1cc(C(F)(C(F)(F)F)C(F)(F)F)ccc1NC(=O)c1cccc(I)c1C(=O)NC(C)CS(=O)(=O)NCC[S+](C)[O-]` (stereo not drawn) [1-76], in test [1], the “Insecticidal effect … Test Example 2” value is “A (Mortality 100%)”. In addition, in test [2], the “Insecticidal effect … Test Example 1” value was “A (Mortality 100%)”. For the same compound, the “Insecticidal effect … Test Example 3” value in test [3] was “A (Mortality 100%)”.
With `Cc1cc(C(F)(C(F)(F)F)C(F)(F)F)ccc1NC(=O)c1cccc(I)c1C(=O)NC(C)CS(=O)(=O)NCCS(C)(=O)=O` (stereo not drawn) [1-77], in test [1], the “Insecticidal effect … Test Example 2” value is reported as “A (Mortality 100%)”. The “Insecticidal effect … Test Example 1” value in test [2] is “A (Mortality 100%)”. Further, in test [3], the “Insecticidal effect … Test Example 3” value is on record as “A (Mortality 100%)”.
In the case of `Cc1cc(C(F)(C(F)(F)F)C(F)(F)F)ccc1NC(=O)c1cccc(I)c1C(=O)NC(C)(C)CS(=O)(=O)NCCO` [1-78], the “Insecticidal effect … Test Example 2” value in test [1] is on record as “E (Mortality less than 50%)”. For the same compound, the “Insecticidal effect … Test Example 1” value in test [2] is given as “A (Mortality 100%)”. In addition, the “Insecticidal effect … Test Example 3” value in test [3] is reported as “A (Mortality 100%)”.
For the compound `COCCNS(=O)(=O)CC(C)(C)NC(=O)c1c(I)cccc1C(=O)Nc1ccc(C(F)(C(F)(F)F)C(F)(F)F)cc1C` [1-79], the “Insecticidal effect … Test Example 2” value in test [1] was “A (Mortality 100%)”. For the same compound, in test [2], the “Insecticidal effect … Test Example 1” value is “A (Mortality 100%)”. For the same compound, the “Insecticidal effect … Test Example 3” value in test [3] is “A (Mortality 100%)”.
In the case of `CSCCNS(=O)(=O)CC(C)(C)NC(=O)c1c(I)cccc1C(=O)Nc1ccc(C(F)(C(F)(F)F)C(F)(F)F)cc1C` [1-81], the “Insecticidal effect … Test Example 2” value in test [1] is reported as “A (Mortality 100%)”. In addition, in test [2], the “Insecticidal effect … Test Example 1” value is recorded as “A (Mortality 100%)”. Moreover, the “Insecticidal effect … Test Example 3” value in test [3] is “A (Mortality 100%)”.
In the case of `Cc1cc(C(F)(C(F)(F)F)C(F)(F)F)ccc1NC(=O)c1cccc(I)c1C(=O)NC(C)(C)CS(=O)(=O)NCC[S+](C)[O-]` (stereo not drawn) [1-82], the “Insecticidal effect … Test Example 2” value in test [1] was “A (Mortality 100%)”. Moreover, the “Insecticidal effect … Test Example 1” value in test [2] is “A (Mortality 100%)”. In addition, the “Insecticidal effect … Test Example 3” value in test [3] was “A (Mortality 100%)”.
`Cc1cc(C(F)(C(F)(F)F)C(F)(F)F)ccc1NC(=O)c1cccc(I)c1C(=O)NC(C)(C)CS(=O)(=O)NCCS(C)(=O)=O` [1-83]: the “Insecticidal effect … Test Example 2” value in test [1] was “A (Mortality 100%)”. Moreover, in test [2], the “Insecticidal effect … Test Example 1” value was “A (Mortality 100%)”. The “Insecticidal effect … Test Example 3” value in test [3] is listed as “A (Mortality 100%)”.
Consider `CCSCCNS(=O)(=O)CC(C)(C)NC(=O)c1c(I)cccc1C(=O)Nc1ccc(C(F)(C(F)(F)F)C(F)(F)F)cc1C` [1-84], for which the “Insecticidal effect … Test Example 2” value in test [1] is recorded as “A (Mortality 100%)”. For the same compound, the “Insecticidal effect … Test Example 1” value in test [2] is given as “A (Mortality 100%)”. Besides, in test [3], the “Insecticidal effect … Test Example 3” value is recorded as “A (Mortality 100%)”.
For `CC[S+]([O-])CCNS(=O)(=O)CC(C)(C)NC(=O)c1c(I)cccc1C(=O)Nc1ccc(C(F)(C(F)(F)F)C(F)(F)F)cc1C` (stereo not drawn) [1-85], in test [1], the “Insecticidal effect … Test Example 2” value is “A (Mortality 100%)”. Further, in test [2], the “Insecticidal effect … Test Example 1” value is listed as “A (Mortality 100%)”. In addition, in test [3], the “Insecticidal effect … Test Example 3” value is “A (Mortality 100%)”.
In the case of `CCS(=O)(=O)CCNS(=O)(=O)CC(C)(C)NC(=O)c1c(I)cccc1C(=O)Nc1ccc(C(F)(C(F)(F)F)C(F)(F)F)cc1C` [1-86], the “Insecticidal effect … Test Example 2” value in test [1] was “A (Mortality 100%)”. Further, the “Insecticidal effect … Test Example 1” value in test [2] was “A (Mortality 100%)”. For the same compound, in test [3], the “Insecticidal effect … Test Example 3” value is reported as “A (Mortality 100%)”.
As for `Cc1cc(C(F)(C(F)(F)F)C(F)(F)F)ccc1NC(=O)c1cccc(I)c1C(=O)NC(C)(C)CS(=O)(=O)NCCSc1ccccc1` [1-87], in test [1], the “Insecticidal effect … Test Example 2” value is “A (Mortality 100%)”. Also, in test [2], the “Insecticidal effect … Test Example 1” value is reported as “A (Mortality 100%)”. Further, the “Insecticidal effect … Test Example 3” value in test [3] is listed as “A (Mortality 100%)”.
Turning to `Cc1cc(C(F)(C(F)(F)F)C(F)(F)F)ccc1NC(=O)c1cccc(I)c1C(=O)NC(C)(C)CS(=O)(=O)NCC[S+]([O-])c1ccccc1` (stereo not drawn) [1-88], the “Insecticidal effect … Test Example 2” value in test [1] is “A (Mortality 100%)”. In test [2], the “Insecticidal effect … Test Example 1” value was “A (Mortality 100%)”. Besides, the “Insecticidal effect … Test Example 3” value in test [3] is reported as “A (Mortality 100%)”.
On to `Cc1cc(C(F)(C(F)(F)F)C(F)(F)F)ccc1NC(=O)c1cccc(I)c1C(=O)NC(C)(C)CS(=O)(=O)NCCS(=O)(=O)c1ccccc1` [1-89], for which the “Insecticidal effect … Test Example 2” value in test [1] was “A (Mortality 100%)”. For the same compound, the “Insecticidal effect … Test Example 1” value in test [2] is on record as “A (Mortality 100%)”. In addition, the “Insecticidal effect … Test Example 3” value in test [3] is listed as “A (Mortality 100%)”.
As to `CSCC(C)NS(=O)(=O)CC(C)NC(=O)c1c(I)cccc1C(=O)Nc1ccc(C(F)(C(F)(F)F)C(F)(F)F)cc1C` (stereo not drawn) [1-91], in test [1], the “Insecticidal effect … Test Example 2” value was “A (Mortality 100%)”. Also, in test [2], the “Insecticidal effect … Test Example 1” value is “A (Mortality 100%)”. In test [3], the “Insecticidal effect … Test Example 3” value was “A (Mortality 100%)”.
Take `Cc1cc(C(F)(C(F)(F)F)C(F)(F)F)ccc1NC(=O)c1cccc(I)c1C(=O)NC(C)CS(=O)(=O)NC(C)C[S+](C)[O-]` (stereo not drawn) [1-92]: the “Insecticidal effect … Test Example 2” value in test [1] is given as “A (Mortality 100%)”. The “Insecticidal effect … Test Example 1” value in test [2] is on record as “A (Mortality 100%)”. In addition, the “Insecticidal effect … Test Example 3” value in test [3] is “A (Mortality 100%)”.
Consider `Cc1cc(C(F)(C(F)(F)F)C(F)(F)F)ccc1NC(=O)c1cccc(I)c1C(=O)NC(C)CS(=O)(=O)NC(C)CS(C)(=O)=O` (stereo not drawn) [1-93], for which the “Insecticidal effect … Test Example 2” value in test [1] is on record as “A (Mortality 100%)”. For the same compound, the “Insecticidal effect … Test Example 1” value in test [2] was “A (Mortality 100%)”. In test [3], the “Insecticidal effect … Test Example 3” value is listed as “A (Mortality 100%)”.
Turning to `CSCC(C)(C)NS(=O)(=O)CC(C)NC(=O)c1c(I)cccc1C(=O)Nc1ccc(C(F)(C(F)(F)F)C(F)(F)F)cc1C` (stereo not drawn) [1-94], the “Insecticidal effect … Test Example 2” value in test [1] is “A (Mortality 100%)”. Besides, the “Insecticidal effect … Test Example 1” value in test [2] was “A (Mortality 100%)”. Further, in test [3], the “Insecticidal effect … Test Example 3” value is on record as “A (Mortality 100%)”.
